The values below come from EP1537869A2, “Radiosensibilizer and preparation thereof” (Christian-Albrechts-Universität zu Kiel, priority 2003, dated 2005).

One series can be described thus: in vitro. The note with it: hamster, cho cells.
The subject of a further series is hypoxischen CHO-ZeIlen. The series is described as follows: Radiosensitisation of hypoxic CHO cells (enhancement ratio ER). Type of series: cell-based. As to conditions: radiosensitising effect. From the text:
Nickel-α-Diimin-Komplexe der Strukturtypen (α-Diimin)NiCl2 und [(α-Diimin)2Ni](ClO4)2 mit dem α-Diimin Antipy-PCD zeigen gegenüber isosteren Palladium- und Platin-Komplexen erhöhte radiosensibilisierende Wirkungen in hypoxischen CHO-ZeIlen; ER = 1,41 resp. 1,37. Für den unkoordinierten Antipy-PCD-Liganden, mit dem bekannten bioaktiven Molekülteil Phenazon, konnte nur ein sehr geringer strahlensensibilisierender Effekt (ER = 1,13) nachgewiesen werden. Die neutralen α-Diimin-Metall-Halogenid-Komplexe (a) der Nickel-Triade haben gegenüber analogen ionischen Perchlorat-Komplexen (b) eine deutlich höhere radiosensibilisierende Wirkung. Folgende Reihen entsprechender Komplexe - bezogen auf das Zentralmetall - mit abnehmenden o.g. sensibilisierenden Eigenschaften wurden ermittelt: für • (a) Ni > Pd > Pt • (b) Ni > Pt > Pd
Von den untersuchten neuen Platin-α-Diimin-Komplexen ist die fünffach koordinierte (Antipy-PCD)PtCl2(NH3)-Verbindung wegen ihres relativ hohen strahlensensibilisierenden Effektes (ER = 1,36) - verglichen mit ER-Literaturdaten für Platinkomplexe - bedeutsam. Eine entsprechende Sensibilisierung aerobischer CHO-ZeIlen durch die hier untersuchten Substanzen wurde in keinem Fall beobachtet.

For series [1], the system named is Mammakarzinomzell-Linie MDA-MB 231. The series can be described thus: In vitro toxicity (T/C in %) on breast carcinoma cell line. The series is classed as cell-based, menschlichen. As to conditions: MDA-MB 231, qualitative or ranking. The text has this:
Die Toxizität (T/C in %) weiterer erstmals dargestellter α-Diimin-Komplexe der Nickel-Triade unterschiedlicher Strukturtypen wurde in vitro an der menschlichen Mammakarzinomzell-Linie MDA-MB 231 getestet.

Compound `Cc1c(N=Cc2ccccn2)c(=O)n(-c2ccccc2)n1C` [Antipy-PCD, 2-Pyridinal-2,3-dihydro-1,5-dimethyl-3-oxo-2-phenyl-1H-pyrazol-4-ylimin] gave a viability at 3 h, 300 µM in “in vitro” of 36%. Also, the ER in the series on hypoxischen CHO-ZeIlen was 1,13.
On to “Dichloro-2-pyridinal-(2,3-dihydro-1,5-dimethyl-3-oxo-2-phenyl-1H-pyrazol-4-ylimin)ammin-platin(II) [(Antipy-PCD)PtCl2(NH3)]”, for which the ER in the series with hypoxischen CHO-ZeIlen was 1,36.
As for `COc1cc([N+](=O)[O-])ccc1N=Cc1ccccn1` [2-MeO-4-NO2-Ph-PCD], the “Toxizität (T/C in %)” value in series [1] was “merkliche Toxizität”.
As to “Bis(2-pyridinal-2,3-dihydro-1,5-dimethyl-3-oxo-2-phenyl-1H- pyrazol-4-ylimin)-nickel(II)perchlorat [[(α-Diimin)2Ni](ClO4)2]”, the ER in the series with hypoxischen CHO-ZeIlen is 1,37.
